Experimental data published in patent US11420976B2 (priority 2020, dated 2022).
Read-outs that look alike come from different tables or passages of the source.

How the values were obtained:
[1] = test system: Human RSV-A (“Long” strain); assay: RSV-A assay (CPE, ATPlite readout in Hep-2 cells); type: cell-based; details: Hep-2 cells, MOI 0.1, 5-day incubation, ATPlite, read-out: Human RSV-A (“Long” strain) EC50
Excerpt: Hep-2 cells, (originally derived from tumors grown in irradiated-cortisonised weanling rats that had been injected with epidermoid carcinoma tissue from a person's larynx, but later found to be indistinguishable from HeLa cells by PCR DNA analysis), were used for the culturing of genotype A, “Long” strain RSV. Flasks were inoculated with RSV and viral stocks were collected once cytopathic effect (CPE) was greater than 90%. Viral stocks in 25% sucrose media were snap frozen using liquid nitrogen to increase viral stability. Viral stock titers were quantified by tissue culture infectious dose 50% (TCID50) using 8,000 cells per well and 3-fold viral dilutions across a 96-well plate, cultured for 4 days. Viral stock titers were also quantified by a plaque forming unit assay, as described elsewhere.
Following extensive parameter testing, the final assay is run as follows: Hep-2 cells are seeded into the inner 60 wells of a 96-well plate at 8,000 cells per well in a volume of 50 μL using Growth Media (DMEM without phenol red, 1% L-Glut, 1% Penn/Strep, 1% nonessential amino acids, 10% heat-inactivated FBS). 2-fold serial dilutions of control and test compounds are added to the wells in duplicate in a total volume of 25 μL. Viral stock is then added to the wells at a multiplicity of infection (MOI) of 0.1 in a volume of 25 μL, bringing the total volume of each well to 100 μL. The MOI is calculated using the PFU/mL, or TCID50 if unavailable. Each 96-well plate has a control column of 6 wells with cells and virus but no compound (negative control, max CPE), a column with cells but no compound or virus (positive control, minimum CPE), and a column with no cells or virus or compound (background plate/reagent control). The control wells with cells but no virus are given an additional […], of growth media containing an equal quantity of sucrose as those wells receiving the viral stock in order to keep consistent in media and volume conditions. The outer wells of the plate are filled with 125 μL of moat media (DMEM, 1% Penn/Strep) to act as a thermal and evaporative moat around the test wells. Following a 5-day incubation period, the plates are read using ATPlite (50 uL added per well), which quantifies the amount of ATP (a measure of cell health) present in each well. Assay plates are read using the Envision luminometer. […] EC50 ranges are as follows: A<0.2 μM; B≥0.2 μM.

[2] = test system: rHMPV-GFP (recombinant HMPV CAN97-83, MPV-GFP1); assay: HMPV antiviral assay (eGFP fluorescence in Vero E6 cells); type: cell-based; details: read-out: rHMPV-GFP EC50
Experimental: HMPV antiviral activity was evaluated using a recombinant version of HMPV CAN97-83 engineered to contain the coding sequence for enhanced green fluorescence protein (eGFP) in the 3′ end of the virus genome (MPV-GFP1, ViraTree). Vero E6 cells (ATCC #CCL-7) were seeded at a density of 12,000 cells/100 μL/well into 96-well cell plates (VENDOR) one day prior to the assay. On the day of screening, the cell culture medium was aspirated from the wells and cells were washed twice with serum-free Eagle's Modified Essential Medium (EMEM, ATCC #) containing 1% penicillin-streptomycin (Invitrogen) (SF-EMEM). Cell washes were performed by dispensing 100 μL SF-EMEM per well and immediately aspirating the wash medium from the well. Following the second wash step, serum-free OptiMEM (Invitrogen, Cat No.) (SF-OptiMEM) containing 0.5 μg/mL TPCK-Trypsin (VENDOR) and 1% penicillin-streptomycin was added to the cells at 50 μL/well. Compounds were added into the 96-well plates using a JANUS automated liquid handling system (VENDOR). Compounds were initially diluted 1:50 into an intermediate 96-well plate containing SF-OptiMEM prior to transfer to the assay plate (25 μL/well). Each of the test compounds was tested in duplicate wells at final concentrations starting from 8 μM or 2 μM using ½ stepwise dilutions for a total of 8 points. Virus infection was performed by preparing a working stock of MPV-GFP1 at a multiplicity of infection (MOI) equal to 0.05/25 μL and aliquoting 25 μL of virus inoculum to the compound and positive control wells. SF-OptiMEM was added (25 μL/well) to the appropriate wells to serve as a virus-free negative control for the assay. The final DMSO concentration of all wells is 0.5%. Plates were incubated at 32° C., 5% CO2 for 5 days. After 5 days incubation, eGFP fluorescence intensity was measured at […] using a Spectramax i3X plate reader (VENDOR). Percent viral inhibition was calculated using the following equation: y=[[…]]×100 Where XQ is the fluorescence intensity measured in a well containing recombinant MPV-GFP1-infected, compound-treated cells and XP is the average fluorescence intensity measured in the wells containing untreated cells infected with recombinant virus. EC50 values were then calculated by non-linear regression using a four parameter curve logistic equation. The curve fit model employed was XLFit Dose Response One Site Model 200: y=(A+(B/(1+((x/C)^D)))) Where A is the minimum y value, B is the maximum y value, C is the log EC50 value, and D is the slope factor. The EC50 of each compound is listed in Table 2 and EC50 ranges are as follows: A<0.2 μM; B≥0.2 μM.

[3] = human respiratory syncytial virus, 120 h

Structure (SMILES): N[C@@]1(C(F)(F)F)COc2c1cc([C@@](O)(CNC(=O)c1cc(OC3CC3)c3ncccc3c1)C1CC1)nc2-c1ccc(F)c(Cl)c1 [Example 30, N—((S)-2-((R)-3-amino-7-(3-chloro-4-fluorophenyl)-3-(trifluoromethyl)-2,3-dihydrofuro[2,3-c]pyridin-5-yl)-2-cyclopropyl-2-hydroxyethyl)-8-cyclopropoxyquinoline-6-carboxamide]
- EC50 [1, 3]: < 200 nM
- EC50 ([2]; Vero C1008, 120 h): > 200 nM

Structure (SMILES): N[C@@]1(C(F)(F)F)COc2c1cc([C@@](O)(CNC(=O)c1cc(OC3CC3)c3nn(C4CC4)cc3c1)C1CC1)nc2-c1ccc(F)cc1 [Example 55c, N—((S)-2-((R)-3-amino-7-(4-fluorophenyl)-3-(trifluoromethyl)-2,3-dihydrofuro[2,3-c]pyridin-5-yl)-2-cyclopropyl-2-hydroxyethyl)-7-cyclopropoxy-2-cyclopropyl-2H-indazole-5-carboxamide]
- EC50 [1, 3]: < 200 nM
- EC50 ([2]; Vero C1008, 120 h): < 200 nM

Structure (SMILES): COc1cc(C(=O)NC[C@](O)(c2cc3c(c(-c4ccc(F)cc4)n2)OC[C@@]3(N)C(F)(F)F)C(F)(F)F)cc2cccnc12 [Example 5, N—((S)-2-((R)-3-amino-7-(4-fluorophenyl)-3-(trifluoromethyl)-2,3-dihydrofuro[2,3-c]pyridin-5-yl)-3,3,3-trifluoro-2-hydroxypropyl)-8-methoxyquinoline-6-carboxamide]
- EC50 [1, 3]: < 200 nM
- EC50 ([2]; Vero C1008, 120 h): > 200 nM

Structure (SMILES): C[C@](O)(CNC(=O)c1ccc(OC2CC2)c(OC2CC2)c1)c1cc2c(c(-c3ccc(F)c(F)c3)n1)OC[C@@]2(N)C(F)(F)F [Example 26, N—((S)-2-((R)-3-amino-7-(3,4-difluorophenyl)-3-(trifluoromethyl)-2,3-dihydrofuro[2,3-c]pyridin-5-yl)-2-hydroxypropyl)-3,4-dicyclopropoxybenzamide]
- EC50 [1, 3]: < 200 nM
- EC50 ([2]; Vero C1008, 120 h): < 200 nM

Structure (SMILES): COc1cc(C(=O)NC[C@@](O)(CF)c2cc3c(c(-c4ccc(F)cc4)n2)OC[C@@]3(N)C(F)(F)F)ccc1OC1CC1 [Example 8]
- EC50 [1]: < 200 nM
- EC50 ([2]; Vero E6 cells, MOI 0.05, 5 days at 32° C., eGFP fluorescence): < 200 nM

Structure (SMILES): COc1cc(C(=O)NC[C@](O)(c2cc3c(c(-c4ccc(F)cc4)n2)OC[C@@]3(N)C(F)(F)F)C(F)(F)F)ccc1OC1CC1 [Example 1]
- EC50 [1, 3]: < 200 nM
- EC50 ([2]; Vero C1008, 120 h): > 200 nM

Structure (SMILES): COc1cc(C(=O)NC[C@](O)(c2cc3c(c(-c4ccc(F)c(Cl)c4)n2)OC[C@@]3(N)C(F)(F)F)C2CC2)ccc1OC1CC1 [Example 25, N—((S)-2-((R)-3-amino-7-(3-chloro-4-fluorophenyl)-3-(trifluoromethyl)-2,3-dihydrofuro[2,3-c]pyridin-5-yl)-2-cyclopropyl-2-hydroxyethyl)-4-cyclopropoxy-3-methoxybenzamide]
- EC50 [1, 3]: < 200 nM
- EC50 ([2]; Vero C1008, 120 h): < 200 nM

Structure (SMILES): N[C@@]1(C(F)(F)F)COc2c1cc([C@@](O)(CNC(=O)c1ccc(OC3CC3)c(OC3CC3)c1)C1CC1)nc2-c1ccc(F)c(F)c1 [Example 27, N—((S)-2-((R)-3-amino-7-(3,4-difluorophenyl)-3-(trifluoromethyl)-2,3-dihydrofuro[2,3-c]pyridin-5-yl)-2-cyclopropyl-2-hydroxyethyl)-3,4-dicyclopropoxybenzamide]
- EC50 [1, 3]: < 200 nM
- EC50 ([2]; Vero C1008, 120 h): < 200 nM

Structure (SMILES): COc1cc(C(=O)NCC(C)c2cc3c(c(-c4ccc(F)c(F)c4)n2)OC[C@@]3(N)C(F)(F)F)ccc1OC1CC1 (some centres unmarked) [Example 48]
- EC50 [1, 3]: > 200 nM
- EC50 ([2]; Vero C1008, 120 h): > 200 nM

Structure (SMILES): COc1cc(C(=O)NC[C@](C)(O)c2cc3c(c(-c4ccc(F)c(Cl)c4)n2)OC[C@@]3(N)C(F)(F)F)ccc1OC1CC1 [Example 24, N—((S)-2-((R)-3-amino-7-(3-chloro-4-fluorophenyl)-3-(trifluoromethyl)-2,3-dihydrofuro[2,3-c]pyridin-5-yl)-2-hydroxypropyl)-4-cyclopropoxy-3-methoxybenzamide]
- EC50 [1, 3]: < 200 nM
- EC50 ([2]; Vero C1008, 120 h): < 200 nM

Structure (SMILES): COc1cc(C(=O)NC[C@](O)(c2cc3c(c(-c4ccc(F)cc4)n2)OC[C@]3(N)C(F)(F)F)C(F)(F)F)cc2cccnc12 [Example 6, N—((S)-2-((S)-3-amino-7-(4-fluorophenyl)-3-(trifluoromethyl)-2,3-dihydrofuro[2,3-c]pyridin-5-yl)-3,3,3-trifluoro-2-hydroxypropyl)-8-methoxyquinoline-6-carboxamide]
- EC50 [1, 3]: < 200 nM
- EC50 ([2]; Vero C1008, 120 h): > 200 nM

Structure (SMILES): COC[C@](O)(CNC(=O)c1ccc(OC2CC2)c(OC)c1)c1cc2c(c(-c3ccc(F)cc3)n1)OC[C@@]2(N)C(F)(F)F [Example 49, N—((S)-2-((R)-3-amino-7-(4-fluorophenyl)-3-(trifluoromethyl)-2,3-dihydrofuro[2,3-c]pyridin-5-yl)-2-hydroxy-3-methoxypropyl)-4-cyclopropoxy-3-methoxybenzamide]
- EC50 [1, 3]: < 200 nM
- EC50 ([2]; Vero C1008, 120 h): > 200 nM

Structure (SMILES): COc1cc(C(=O)NC[C@](C)(O)c2cc3c(c(-c4ccc(F)cc4)n2)OC[C@@]3(N)C(F)(F)F)cc2cccnc12 [Example 17, N—((S)-2-((R)-3-amino-7-(4-fluorophenyl)-3-(trifluoromethyl)-2,3-dihydrofuro[2,3-c]pyridin-5-yl)-2-hydroxypropyl)-8-methoxyquinoline-6-carboxamide]
- EC50 [1, 3]: < 200 nM

Structure (SMILES): Nc1nc2ccc(C(=O)NC[C@](O)(c3cc4c(c(-c5ccc(F)cc5)n3)OC[C@@]4(N)C(F)(F)F)C3CC3)cc2s1 [Example 52, 2-amino-N—((S)-2-((R)-3-amino-7-(4-fluorophenyl)-3-(trifluoromethyl)-2,3-dihydrofuro[2,3-c]pyridin-5-yl)-2-cyclopropyl-2-hydroxyethyl)benzo[d]thiazole-6-carboxamide]
- EC50 [1, 3]: < 200 nM

Structure (SMILES): COC(=O)N[C@@]1(C(F)(F)F)COc2c1cc([C@@](O)(CNC(=O)c1ccc(OC3CC3)c(OC)c1)C(F)(F)F)nc2-c1ccc(F)cc1 [Example 44]
- EC50 [1, 3]: > 200 nM

Structure (SMILES): COc1cc(C(=O)NC[C@](O)(c2cc3c(c(-c4ccc(F)cc4)n2)OC[C@@]3(N)C(F)(F)F)C(F)(F)F)cc(F)c1OC1CC1 [Example 39]
- EC50 [1, 3]: > 200 nM

Structure (SMILES): C[C@](O)(CNC(=O)c1ccc(OC2CC2)c(-c2cccnc2)c1)c1cc2c(c(-c3ccc(F)cc3)n1)OC[C@@]2(N)C(F)(F)F [Example 18, N—((S)-2-((R)-3-amino-7-(4-fluorophenyl)-3-(trifluoromethyl)-2,3-dihydrofuro[2,3-c]pyridin-5-yl)-2-hydroxypropyl)-4-cyclopropoxy-3-(pyridin-3-yl)benzamide]
- EC50 [1, 3]: < 200 nM
